The numbers were not newly measured in patent publication US20170065667A1, “METHODS FOR SYNCHRONIZATION OF ESTROUS CYCLES AND OVULATION FOR FIXED TIME ARTIFICIAL INSEMINATION IN CATTLE” (Parnell Technologies Pty Ltd., priority 2014, published 2017), which cites them from elsewhere.

The subject of the series is lactating dairy cows. To be noted: dinoprost 25 mg, cloprostenol 0.5 mg; cited from earlier work.

In the case of `CCCCC[C@H](O)/C=C/[C@@H]1[C@@H](C/C=C\CCCC(=O)O)[C@@H](O)C[C@H]1O` [dinoprost], the “percentage of cows with complete CL regression” value is listed as 80%.
